Assay results as given in patent publication US20260132158A1, “PHENYL OXY AMIDE KINASE INHIBITORS” (THE TRANSLATIONAL GENOMICS RESEARCH INSTITUTE, priority 2022, published 2026).

Biological target: T1, RON Kinase (Homo sapiens, UniProt Q04912)
T1 construct: purchased Promega V8071
Test: RON Kinase ADP Glo Assay
Format: biochemical
Conditions: ratio cMET IC50 / RON IC50
Experimental: RON Kinase ADP Glo Assay • Assay Buffer: 40 mM Tris-HCl, pH7.5, 20 mM MgCl2, 0.1 mg/mL BSA • RON Kinase+ADP-Glo™ Assay (Promega #: V8071) • Substrate: […] Axltide • Enzyme: 100 ng/μL RON Kinase • ATP: 10 mM • ADP-Glo™ Reagent • Kinase Detection Reagent • 384-well white assay plates Kinase assay was done by following instructions from the kit. Briefly, a ten-point serial dilution of compound was prepared at 5× in assay buffer with the final assay concentrations starting at 300 nM, 100 nM, 30 nM, 10 nM . . . 0 nM. Enzyme, substrate, and ATP were used at 25 ng, 2000 ng, and 25 µM, respectively. The assay plate was set up by mixing the components in a total reaction volume of 10 μL per well. The plate was centrifuged gently for 10 seconds and incubated at room temperature (RT) for 60 minutes in the dark. The ADP-Glo Reagent and kinase detection reagent were added and incubated as recommended. The reaction was quantified by measuring luminescence on the Perkin Elmer Envision plate reader.

T1 sequence (Q04912 25-1400): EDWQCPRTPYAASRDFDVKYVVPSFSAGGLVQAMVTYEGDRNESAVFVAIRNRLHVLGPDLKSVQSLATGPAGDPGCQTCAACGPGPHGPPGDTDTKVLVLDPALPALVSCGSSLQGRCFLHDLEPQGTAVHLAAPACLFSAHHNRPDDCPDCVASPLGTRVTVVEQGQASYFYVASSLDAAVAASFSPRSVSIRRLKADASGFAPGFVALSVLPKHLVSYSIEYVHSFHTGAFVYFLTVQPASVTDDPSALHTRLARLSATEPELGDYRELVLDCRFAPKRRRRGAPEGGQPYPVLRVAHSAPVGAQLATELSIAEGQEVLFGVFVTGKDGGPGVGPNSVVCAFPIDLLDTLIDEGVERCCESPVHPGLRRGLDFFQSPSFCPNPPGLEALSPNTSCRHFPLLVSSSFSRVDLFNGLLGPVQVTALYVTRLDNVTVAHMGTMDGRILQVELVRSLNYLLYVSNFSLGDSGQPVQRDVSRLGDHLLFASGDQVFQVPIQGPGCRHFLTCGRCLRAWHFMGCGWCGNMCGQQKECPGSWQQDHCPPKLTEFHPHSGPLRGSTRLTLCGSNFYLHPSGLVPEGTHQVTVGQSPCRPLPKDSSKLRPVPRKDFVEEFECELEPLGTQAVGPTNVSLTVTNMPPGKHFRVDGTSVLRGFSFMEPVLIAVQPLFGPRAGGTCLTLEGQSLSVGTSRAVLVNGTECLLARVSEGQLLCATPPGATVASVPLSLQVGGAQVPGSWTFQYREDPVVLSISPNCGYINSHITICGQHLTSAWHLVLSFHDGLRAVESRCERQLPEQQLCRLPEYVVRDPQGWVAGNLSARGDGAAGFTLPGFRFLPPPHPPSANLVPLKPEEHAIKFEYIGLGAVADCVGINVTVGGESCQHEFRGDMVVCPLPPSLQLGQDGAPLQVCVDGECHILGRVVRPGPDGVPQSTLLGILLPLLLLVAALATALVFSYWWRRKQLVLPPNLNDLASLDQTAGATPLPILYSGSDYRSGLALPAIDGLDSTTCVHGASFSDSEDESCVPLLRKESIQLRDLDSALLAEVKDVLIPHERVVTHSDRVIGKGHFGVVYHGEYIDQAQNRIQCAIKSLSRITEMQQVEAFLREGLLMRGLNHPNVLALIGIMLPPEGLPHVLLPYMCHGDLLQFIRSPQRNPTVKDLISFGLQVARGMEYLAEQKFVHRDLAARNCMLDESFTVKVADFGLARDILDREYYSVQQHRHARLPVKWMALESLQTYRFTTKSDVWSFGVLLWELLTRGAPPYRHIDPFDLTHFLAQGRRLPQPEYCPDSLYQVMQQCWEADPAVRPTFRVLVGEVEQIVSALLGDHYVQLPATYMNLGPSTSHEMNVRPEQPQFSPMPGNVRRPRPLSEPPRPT

Structure (SMILES)	Fold Selectivity (cMET/RON)
CP(C)(=O)c1cccc(Nc2nccc(Oc3ccc(NC(=O)c4cnn(-c5ccc(F)cc5)c4C(F)(F)F)cc3F)n2)c1 [Compound 26, N-(4-((2-((3-(dimethylphosphoryl)phenyl)amino)pyrimidin-4-yl)oxy)-3-fluorophenyl)-1-(4-fluorophenyl)-5-(trifluoromethyl)-1H-pyrazole-4-carboxamide]	+++ (represents a value greater than 3 up to 50)
COc1cc(Nc2nccc(Oc3ccc(NC(=O)c4cnn(-c5ccc(F)cc5)c4C(F)(F)F)cc3F)n2)cc(OC)c1 [Compound 24, N-(4-((2-((3,5-dimethoxyphenyl)amino)pyrimidin-4-yl)oxy)-3-fluorophenyl)-1-(4-fluorophenyl)-5-(trifluoromethyl)-1H-pyrazole-4-carboxamide]	+++ (represents a value greater than 3 up to 50)
CCCN1CCN(CCc2cccc(Nc3nccc(Oc4ccc(NC(=O)c5cnn(-c6ccc(F)cc6)c5C(F)(F)F)cc4F)n3)c2)CC1 [Compound 47, N-(3-Fluoro-4-((2-((3-(2-(4-Propylpiperazin-1-Yl)Ethyl)Phenyl)Amino)Pyrimidin-4-Yl)Oxy)Phenyl)-1-(4-Fluorophenyl)-5-(Trifluoromethyl)-1H-Pyrazole-4-Carboxamide]	+++ (represents a value greater than 3 up to 50)
Cn1cc(-c2cc3nccc(Oc4ccc(NC(=O)c5cnn(-c6ccc(F)cc6)c5C(F)(F)F)cc4F)n3n2)cn1 [Compound 7, N-(3-fluoro-4-((2-(1-methyl-1H-pyrazol-4-yl)pyrazolo[1,5-a]pyrimidin-7-yl)oxy)phenyl)-1-(4-fluorophenyl)-5-(trifluoromethyl)-1H-pyrazole-4-carboxamide]	+++ (represents a value greater than 3 up to 50)
Cn1cnc(-c2cc3ncnc(Oc4ccc(NC(=O)c5cnn(-c6ccc(F)cc6)c5C(F)(F)F)cc4F)c3s2)c1 [Compound 2, N-(3-fluoro-4-((6-(1-methyl-1H-imidazol-4-yl)thieno[3,2-d]pyrimidin-4-yl)oxy)phenyl)-1-(4-fluorophenyl)-5-(trifluoromethyl)-1H-pyrazole-4-carboxamide]	+++ (represents a value greater than 3 up to 50)
O=C(Nc1ccc(Oc2ccnc(Nc3cccc(N4CCOCC4)c3)n2)c(F)c1)c1cnn(-c2ccc(F)cc2)c1C(F)(F)F [Compound 1, N-(3-fluoro-4-((2-((3-morpholinophenyl)amino)pyrimidin-4-yl)oxy)phenyl)-1-(4-fluorophenyl)-5-(trifluoromethyl)-1H-pyrazole-4-carboxamide]	+++ (represents a value greater than 3 up to 50)
C=CC(=O)N1CCN(C(=O)Cc2cccc(Nc3nccc(Oc4ccc(NC(=O)c5cnn(-c6ccc(F)cc6)c5C(F)(F)F)cc4F)n3)c2)CC1 [Compound 50, N-[4-(2-{m-[2-(4-acryloyl-1-piperazinyl)-2-oxoethyl]phenylamino}-4-pyrimidinyloxy)-3-fluorophenyl]-1-(p-fluorophenyl)-5-(trifluoromethyl)-4-pyrazolecarboxamide]	+++ (represents a value greater than 3 up to 50)
C=CC(=O)N1CCN(CCc2cccc(Nc3nccc(Oc4ccc(NC(=O)c5cnn(-c6ccc(F)cc6)c5C(F)(F)F)cc4F)n3)c2)CC1 [Compound 43, N-[4-(2-{m-[2-(4-acryloyl-1-piperazinyl)ethyl]phenylamino}-4-pyrimidinyloxy)-3-fluorophenyl]-1-(p-fluorophenyl)-5-(trifluoromethyl)-4-pyrazolecarboxamide]	+++ (represents a value greater than 3 up to 50)
O=C(Nc1ccc(Oc2ccnc(Nc3cccc(CCN4CCN(C5CC5)CC4)c3)n2)c(F)c1)c1cnn(-c2ccc(F)cc2)c1C(F)(F)F [Compound 49, N-(4-((2-((3-(2-(4-cyclopropylpiperazin-1-yl)ethyl)phenyl)amino)pyrimidin-4-yl)oxy)-3-fluorophenyl)-1-(4-fluorophenyl)-5-(trifluoromethyl)-1H-pyrazole-4-carboxamide]	++ (represents a value greater than 0.5 up to 3)
Cn1cc(-c2c(Oc3ccc(NC(=O)c4nnn(-c5ccc(F)cc5)c4C(F)(F)F)cc3F)ccnc2N)cn1 [Compound 6, N-(4-((2-amino-3-(1-methyl-1H-pyrazol-4-yl)pyridin-4-yl)oxy)-3-fluorophenyl)-1-(4-fluorophenyl)-5-(trifluoromethyl)-1H-1,2,3-triazole-4-carboxamide]	++ (represents a value greater than 0.5 up to 3)
Cn1cnc(-c2cc3nccc(Oc4ccc(NC(=O)c5cnn(-c6ccc(F)cc6)c5C(F)(F)F)cc4F)n3n2)c1 [Compound 8, N-(3-fluoro-4-((2-(1-methyl-1H-imidazol-4-yl)pyrazolo[1,5-a]pyrimidin-7-yl)oxy)phenyl)-1-(4-fluorophenyl)-5-(trifluoromethyl)-1H-pyrazole-4-carboxamide]	+++ (represents a value greater than 3 up to 50)
Cn1cc(-c2c(Oc3ccc(NC(=O)c4cnn(-c5ccc(F)cc5)c4C(F)(F)F)cc3F)ccnc2N)cn1 [Compound 5, N-(4-((2-amino-3-(1-methyl-1H-pyrazol-4-yl)pyridin-4-yl)oxy)-3-fluorophenyl)-1-(4-fluorophenyl)-5-(trifluoromethyl)-1H-pyrazole-4-carboxamide]	+++ (represents a value greater than 3 up to 50)
C=CC(=O)NC1CCCC(Nc2nccc(Oc3ccc(NC(=O)c4cnn(-c5ccc(F)cc5)c4C(F)(F)F)cc3F)n2)C1 (single isomer, unassigned) [44 (peak 1), N-(4-((2-((3-acrylamidocyclohexyl)amino)pyrimidin-4-yl)oxy)-3-fluorophenyl)-1-(4-fluorophenyl)-5-(trifluoromethyl)-1H-pyrazole-4-carboxamide]	+++ (represents a value greater than 3 up to 50)
CP(C)(=O)c1cncnc1Oc1ccc(NC(=O)c2cnn(-c3ccc(F)cc3)c2C(F)(F)F)cc1F [Compound 54, N-{4-[5-(dimethylphosphoryl)-4-pyrimidinyloxy]-3-fluorophenyl}-1-(p-fluorophenyl)-5-(trifluoromethyl)-4-pyrazolecarboxamide]	+++ (represents a value greater than 3 up to 50)
O=C(Nc1ccc(Oc2ccnc3cc(Br)nn23)c(F)c1)c1cnn(-c2ccc(F)cc2)c1C(F)(F)F [Compound 4, N-(4-((2-bromopyrazolo[1,5-a]pyrimidin-7-yl)oxy)-3-fluorophenyl)-1-(4-fluorophenyl)-5-(trifluoromethyl)-1H-pyrazole-4-carboxamide]	++ (represents a value greater than 0.5 up to 3)
CC(C)N1CCN(CCc2cccc(Nc3nccc(Oc4ccc(NC(=O)c5cnn(-c6ccc(F)cc6)c5C(F)(F)F)cc4F)n3)c2)CC1 [Compound 48, N-[3-fluoro-4-(2-{m-[2-(4-isopropyl-1-piperazinyl)ethyl]phenylamino}-4-pyrimidinyloxy)phenyl]-1-(p-fluorophenyl)-5-(trifluoromethyl)-4-pyrazolecarboxamide]	++ (represents a value greater than 0.5 up to 3)
Cn1cc(-c2c(Oc3ccc(NC(=O)c4ccnc(-c5ccc(F)cc5)c4C(F)(F)F)cc3F)ccnc2N)cn1 [Compound 12, N-(4-((2-amino-3-(1-methyl-1H-pyrazol-4-yl)pyridin-4-yl)oxy)-3-fluorophenyl)-2-(4-fluorophenyl)-3-(trifluoromethyl)isonicotinamide]	+++ (represents a value greater than 3 up to 50)
C=CC(=O)N1CCCC(c2cccc(Nc3nccc(Oc4ccc(NC(=O)c5cnn(-c6ccc(F)cc6)c5C(F)(F)F)cc4F)n3)c2)C1 (stereo not shown) [Compound 38, N-(4-((2-((3-(1-acryloylpiperidin-3-yl)phenyl)amino)pyrimidin-4-yl)oxy)-3-fluorophenyl)-1-(4-fluorophenyl)-5-(trifluoromethyl)-1H-pyrazole-4-carboxamide]	+++ (represents a value greater than 3 up to 50)
CCOc1ccn(-c2ccc(F)cc2)c(=O)c1C(=O)Nc1ccc(Oc2ccnc(N)c2P(C)(C)=O)c(F)c1 [Compound 58, N-{4-[2-amino-3-(dimethylphosphoryl)-4-pyridyloxy]-3-fluorophenyl}-4-ethoxy-1-(4-fluorophenyl)-2-oxo-1,2-dihydronicotinamide]	+ (represents a value below 0.5)
Cn1cc(-c2c(Oc3ccc(NC(=O)c4cc(-c5ccc(F)cc5)no4)cc3F)ccnc2N)cn1 [Compound 21, N-(4-((2-amino-3-(1-methyl-1H-pyrazol-4-yl)pyridin-4-yl)oxy)-3-fluorophenyl)-3-(4-fluorophenyl)isoxazole-5-carboxamide]	+ (represents a value below 0.5)
C=CC(=O)NC1CCCC(Nc2nccc(Oc3ccc(NC(=O)c4cnn(-c5ccc(F)cc5)c4C(F)(F)F)cc3F)n2)C1 (single isomer, unassigned) [44 (peak 2), N-(4-((2-((3-acrylamidocyclohexyl)amino)pyrimidin-4-yl)oxy)-3-fluorophenyl)-1-(4-fluorophenyl)-5-(trifluoromethyl)-1H-pyrazole-4-carboxamide]	+++ (represents a value greater than 3 up to 50)
CC(C)Oc1cccc(Nc2nccc(Oc3ccc(NC(=O)c4cnn(-c5ccc(F)cc5)c4C(F)(F)F)cc3F)n2)c1 [Compound 35, N-(3-fluoro-4-((2-((3-isopropoxyphenyl)amino)pyrimidin-4-yl)oxy)phenyl)-1-(4-fluorophenyl)-5-(trifluoromethyl)-1H-pyrazole-4-carboxamide]	+++ (represents a value greater than 3 up to 50)
